From ChEMBL document CHEMBL5696442, “Discovery of type II inhibitors of TGFβ-activated kinase 1 (TAK1) and mitogen-activated protein kinase kinase kinase kinase 2 (MAP4K2)” (J Med Chem, 2015)
Calls of active or inactive are those of the source. The calls are words filed in the database; no cut-off is given here.

Legend:
[1] = Inhibition of KHS1 Lys2 labeling site harbouring DIKGANILLTDHGDVKLADFGVAAK in human Huh-7 cells at 1 uM by KiNativ Profiling analysis relative to control; details: condition cancer
[2] = biological target: Putative phosphatidylinositol 4-kinase alpha-like protein P2 (Homo sapiens) (UniProt A4QPH2); experiment: Inhibition of PI4KAP2 ATP labeling site in human Huh-7 cells at 1 uM by KiNativ Profiling analysis relative to control; assay type: cell-based
Sequence of Putative phosphatidylinositol 4-kinase alpha-like protein P2 (Homo sapiens) (A4QPH2 whole entry): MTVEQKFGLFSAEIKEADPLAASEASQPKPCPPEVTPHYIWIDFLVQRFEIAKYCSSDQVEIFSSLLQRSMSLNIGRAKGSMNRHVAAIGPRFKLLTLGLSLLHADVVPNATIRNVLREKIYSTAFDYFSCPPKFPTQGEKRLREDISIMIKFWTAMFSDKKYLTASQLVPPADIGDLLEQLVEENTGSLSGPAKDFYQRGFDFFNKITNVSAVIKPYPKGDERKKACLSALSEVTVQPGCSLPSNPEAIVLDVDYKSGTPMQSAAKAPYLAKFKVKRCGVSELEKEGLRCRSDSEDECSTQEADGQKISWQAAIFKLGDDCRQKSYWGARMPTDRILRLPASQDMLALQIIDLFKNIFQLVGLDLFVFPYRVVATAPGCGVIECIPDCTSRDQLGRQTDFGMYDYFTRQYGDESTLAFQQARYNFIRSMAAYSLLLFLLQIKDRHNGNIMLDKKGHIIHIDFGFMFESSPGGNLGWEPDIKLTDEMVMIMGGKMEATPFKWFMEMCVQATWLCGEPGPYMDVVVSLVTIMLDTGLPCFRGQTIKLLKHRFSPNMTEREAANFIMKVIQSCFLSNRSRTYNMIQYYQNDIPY

[3] = biological target: BMP-2-inducible protein kinase (Homo sapiens) (UniProt Q9NSY1); experiment: Inhibition of BIKE (unknown origin) at 10 uM by Ambit Kinomescan binding assay
Sequence of BMP-2-inducible protein kinase (Homo sapiens) (Q9NSY1 whole entry, looked up): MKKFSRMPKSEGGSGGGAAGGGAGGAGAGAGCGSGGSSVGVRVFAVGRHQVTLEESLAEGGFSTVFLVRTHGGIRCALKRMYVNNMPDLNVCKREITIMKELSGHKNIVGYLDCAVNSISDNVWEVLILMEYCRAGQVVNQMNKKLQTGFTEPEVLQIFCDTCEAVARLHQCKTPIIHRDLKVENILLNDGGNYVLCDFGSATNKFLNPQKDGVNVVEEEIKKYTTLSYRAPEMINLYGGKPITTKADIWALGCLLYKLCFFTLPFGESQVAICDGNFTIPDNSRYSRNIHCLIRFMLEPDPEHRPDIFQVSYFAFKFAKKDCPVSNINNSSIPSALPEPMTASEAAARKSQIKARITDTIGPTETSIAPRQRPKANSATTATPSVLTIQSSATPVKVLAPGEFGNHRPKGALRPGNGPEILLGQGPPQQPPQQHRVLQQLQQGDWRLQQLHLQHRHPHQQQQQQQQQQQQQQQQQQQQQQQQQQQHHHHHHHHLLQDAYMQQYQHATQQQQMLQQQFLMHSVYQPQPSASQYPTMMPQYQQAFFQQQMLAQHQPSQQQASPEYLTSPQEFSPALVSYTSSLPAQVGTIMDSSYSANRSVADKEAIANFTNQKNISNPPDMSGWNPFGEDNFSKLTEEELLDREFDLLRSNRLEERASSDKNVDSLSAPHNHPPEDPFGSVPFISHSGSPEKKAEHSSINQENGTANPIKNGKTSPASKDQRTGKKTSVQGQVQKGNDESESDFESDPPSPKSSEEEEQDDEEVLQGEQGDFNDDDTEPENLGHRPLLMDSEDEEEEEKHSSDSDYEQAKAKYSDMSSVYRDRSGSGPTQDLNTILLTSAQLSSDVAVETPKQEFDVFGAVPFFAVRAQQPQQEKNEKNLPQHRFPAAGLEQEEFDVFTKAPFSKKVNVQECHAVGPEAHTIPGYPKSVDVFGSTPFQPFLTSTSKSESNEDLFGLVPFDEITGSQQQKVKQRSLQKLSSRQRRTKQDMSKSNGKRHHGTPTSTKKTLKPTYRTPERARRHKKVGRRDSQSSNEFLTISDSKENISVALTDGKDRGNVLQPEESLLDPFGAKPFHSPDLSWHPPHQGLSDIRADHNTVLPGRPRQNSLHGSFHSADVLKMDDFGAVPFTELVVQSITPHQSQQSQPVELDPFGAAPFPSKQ

[4] = biological target: Dual specificity protein kinase CLK3 (Homo sapiens) (UniProt P49761); experiment: Inhibition of CLK3 (unknown origin) at 10 uM by Ambit Kinomescan binding assay
Sequence of Dual specificity protein kinase CLK3 (Homo sapiens) (P49761 whole entry, looked up, canonical isoform): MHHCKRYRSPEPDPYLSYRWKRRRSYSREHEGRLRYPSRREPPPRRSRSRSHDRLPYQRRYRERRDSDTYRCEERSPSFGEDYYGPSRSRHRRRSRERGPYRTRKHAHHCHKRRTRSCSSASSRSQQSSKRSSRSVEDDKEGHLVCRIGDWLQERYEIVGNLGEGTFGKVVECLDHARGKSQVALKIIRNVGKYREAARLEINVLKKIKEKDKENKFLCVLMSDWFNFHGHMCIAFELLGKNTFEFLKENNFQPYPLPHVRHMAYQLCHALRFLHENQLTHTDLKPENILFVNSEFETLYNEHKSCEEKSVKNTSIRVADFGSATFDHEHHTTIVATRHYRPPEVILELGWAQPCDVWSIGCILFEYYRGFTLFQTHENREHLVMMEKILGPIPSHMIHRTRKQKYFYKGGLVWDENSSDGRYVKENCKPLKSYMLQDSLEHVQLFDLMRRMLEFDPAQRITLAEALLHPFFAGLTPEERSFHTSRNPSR

[5] = biological target: T1, Phosphorylase b kinase gamma catalytic chain, liver/testis isoform (Homo sapiens) (UniProt P15735); experiment: Inhibition of PHKG2 (unknown origin) at 10 uM by Ambit Kinomescan binding assay
T1 sequence (whole entry): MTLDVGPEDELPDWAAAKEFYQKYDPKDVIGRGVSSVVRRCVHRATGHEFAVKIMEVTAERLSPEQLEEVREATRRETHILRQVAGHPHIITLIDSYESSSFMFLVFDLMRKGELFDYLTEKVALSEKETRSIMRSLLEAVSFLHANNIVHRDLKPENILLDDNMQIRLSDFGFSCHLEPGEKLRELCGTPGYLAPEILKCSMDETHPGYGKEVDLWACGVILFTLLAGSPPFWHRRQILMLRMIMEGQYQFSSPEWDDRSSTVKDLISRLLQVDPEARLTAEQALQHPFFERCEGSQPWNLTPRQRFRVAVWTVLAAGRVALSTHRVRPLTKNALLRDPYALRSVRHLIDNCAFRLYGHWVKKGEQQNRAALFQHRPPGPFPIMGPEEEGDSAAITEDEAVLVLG

[6] = biological target: T2, Dual specificity mitogen-activated protein kinase kinase 6 (Homo sapiens) (UniProt P52564); experiment: Inhibition of MAP2K6 Lys2 labeling site in human A-375 cells at 0.05 uM by KiNativ Profiling analysis relative to control; assay type: cell-based
T2 sequence (whole entry): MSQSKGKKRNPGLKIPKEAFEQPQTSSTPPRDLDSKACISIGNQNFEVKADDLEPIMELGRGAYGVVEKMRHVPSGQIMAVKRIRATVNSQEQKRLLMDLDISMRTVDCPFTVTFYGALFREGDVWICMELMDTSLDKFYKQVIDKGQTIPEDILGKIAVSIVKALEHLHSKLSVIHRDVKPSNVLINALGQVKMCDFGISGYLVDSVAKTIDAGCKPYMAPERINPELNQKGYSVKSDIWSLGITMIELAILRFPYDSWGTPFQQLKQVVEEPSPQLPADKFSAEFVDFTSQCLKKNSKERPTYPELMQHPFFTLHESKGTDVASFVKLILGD

[7] = biological target: AMPK alpha1/alpha2 (Homo sapiens) (UniProt P54646+Q13131); experiment: Inhibition of AMPK alpha 1/2 K1 labeling site in human Huh-7 cells at 1 uM by KiNativ Profiling analysis relative to control; assay type: cell-based
Sequence of AMPK alpha1/alpha2 (Homo sapiens) (P54646 whole entry, looked up): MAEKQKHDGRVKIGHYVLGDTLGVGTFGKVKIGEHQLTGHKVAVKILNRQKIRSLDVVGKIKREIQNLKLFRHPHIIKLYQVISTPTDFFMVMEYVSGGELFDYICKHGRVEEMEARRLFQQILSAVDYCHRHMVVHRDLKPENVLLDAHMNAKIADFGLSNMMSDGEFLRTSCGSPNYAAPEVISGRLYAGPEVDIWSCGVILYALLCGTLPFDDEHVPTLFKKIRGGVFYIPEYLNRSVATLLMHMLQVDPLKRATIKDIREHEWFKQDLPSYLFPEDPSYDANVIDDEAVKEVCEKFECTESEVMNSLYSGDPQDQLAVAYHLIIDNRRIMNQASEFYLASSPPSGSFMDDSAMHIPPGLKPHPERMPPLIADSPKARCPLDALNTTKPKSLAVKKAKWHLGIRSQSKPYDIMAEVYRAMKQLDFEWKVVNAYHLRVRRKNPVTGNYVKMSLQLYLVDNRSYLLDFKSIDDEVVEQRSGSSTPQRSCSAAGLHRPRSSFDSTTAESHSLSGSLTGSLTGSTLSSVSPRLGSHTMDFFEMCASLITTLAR
Sequence of AMPK alpha1/alpha2 (Homo sapiens) (Q13131 whole entry, looked up): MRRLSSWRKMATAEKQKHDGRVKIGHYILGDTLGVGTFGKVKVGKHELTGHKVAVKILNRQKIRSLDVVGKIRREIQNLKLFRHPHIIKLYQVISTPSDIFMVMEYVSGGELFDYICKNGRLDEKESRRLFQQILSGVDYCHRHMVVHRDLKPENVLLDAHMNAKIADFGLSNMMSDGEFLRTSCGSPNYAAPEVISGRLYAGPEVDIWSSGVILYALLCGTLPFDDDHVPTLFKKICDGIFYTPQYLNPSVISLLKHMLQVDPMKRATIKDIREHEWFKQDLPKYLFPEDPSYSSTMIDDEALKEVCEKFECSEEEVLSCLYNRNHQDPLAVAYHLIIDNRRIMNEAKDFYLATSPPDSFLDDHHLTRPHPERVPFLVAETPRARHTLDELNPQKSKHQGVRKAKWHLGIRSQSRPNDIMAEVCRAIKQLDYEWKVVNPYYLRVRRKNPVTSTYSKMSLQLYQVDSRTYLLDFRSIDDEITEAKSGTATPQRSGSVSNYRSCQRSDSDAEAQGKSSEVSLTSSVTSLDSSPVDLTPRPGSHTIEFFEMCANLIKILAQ

[8] = biological target: Calcium/calmodulin-dependent protein kinase type II subunit gamma (Homo sapiens) (UniProt Q13555); experiment: Inhibition of CaMK2g K1 labeling site in human Huh-7 cells at 1 uM by KiNativ Profiling analysis relative to control; assay type: cell-based
Sequence of Calcium/calmodulin-dependent protein kinase type II subunit gamma (Homo sapiens) (Q13555 whole entry): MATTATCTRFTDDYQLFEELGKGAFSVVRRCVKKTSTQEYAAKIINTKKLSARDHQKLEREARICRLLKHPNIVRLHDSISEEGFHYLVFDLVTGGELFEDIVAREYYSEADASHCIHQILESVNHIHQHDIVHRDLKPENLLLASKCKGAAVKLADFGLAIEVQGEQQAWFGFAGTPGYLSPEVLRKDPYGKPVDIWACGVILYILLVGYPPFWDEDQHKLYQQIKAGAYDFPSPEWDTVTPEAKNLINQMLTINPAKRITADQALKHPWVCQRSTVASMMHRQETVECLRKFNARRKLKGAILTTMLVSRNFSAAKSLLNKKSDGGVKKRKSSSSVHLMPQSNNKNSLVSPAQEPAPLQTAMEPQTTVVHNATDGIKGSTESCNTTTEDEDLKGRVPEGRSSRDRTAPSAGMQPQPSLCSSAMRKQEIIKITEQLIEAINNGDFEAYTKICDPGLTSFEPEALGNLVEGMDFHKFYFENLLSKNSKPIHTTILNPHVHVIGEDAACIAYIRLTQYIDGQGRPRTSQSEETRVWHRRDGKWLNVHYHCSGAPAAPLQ

[9] = biological target: Serine/threonine-protein kinase Nek4 (Homo sapiens) (UniProt P51957); experiment: Inhibition of NEK4 Lys2 labeling site in human A-375 cells at 5 uM by KiNativ Profiling analysis relative to control; assay type: cell-based
[10] = biological target: Mitogen-activated protein kinase 3 (Homo sapiens) (UniProt P27361); experiment: Inhibition of ERK1 (unknown origin) at 1 uM by Ambit Kinomescan binding assay relative to control; values are per cent of control
Sequence of Mitogen-activated protein kinase 3 (Homo sapiens) (P27361 whole entry): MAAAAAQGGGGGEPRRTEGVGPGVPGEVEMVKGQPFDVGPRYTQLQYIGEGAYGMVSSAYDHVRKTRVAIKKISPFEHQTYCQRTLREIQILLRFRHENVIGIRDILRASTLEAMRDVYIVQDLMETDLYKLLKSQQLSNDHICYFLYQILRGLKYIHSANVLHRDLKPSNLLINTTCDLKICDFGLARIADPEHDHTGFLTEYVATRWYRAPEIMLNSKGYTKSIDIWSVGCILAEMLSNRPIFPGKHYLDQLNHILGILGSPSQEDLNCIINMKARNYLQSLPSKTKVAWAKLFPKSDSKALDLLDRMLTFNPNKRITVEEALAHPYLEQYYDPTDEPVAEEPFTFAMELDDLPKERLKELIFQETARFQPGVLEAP

[11] = biological target: T3, Mitogen-activated protein kinase kinase kinase 15 (Homo sapiens) (UniProt Q6ZN16); experiment: Inhibition of MAP3K15 (unknown origin) at 1 uM by Ambit Kinomescan binding assay relative to control; values are per cent of control
T3 sequence (whole entry): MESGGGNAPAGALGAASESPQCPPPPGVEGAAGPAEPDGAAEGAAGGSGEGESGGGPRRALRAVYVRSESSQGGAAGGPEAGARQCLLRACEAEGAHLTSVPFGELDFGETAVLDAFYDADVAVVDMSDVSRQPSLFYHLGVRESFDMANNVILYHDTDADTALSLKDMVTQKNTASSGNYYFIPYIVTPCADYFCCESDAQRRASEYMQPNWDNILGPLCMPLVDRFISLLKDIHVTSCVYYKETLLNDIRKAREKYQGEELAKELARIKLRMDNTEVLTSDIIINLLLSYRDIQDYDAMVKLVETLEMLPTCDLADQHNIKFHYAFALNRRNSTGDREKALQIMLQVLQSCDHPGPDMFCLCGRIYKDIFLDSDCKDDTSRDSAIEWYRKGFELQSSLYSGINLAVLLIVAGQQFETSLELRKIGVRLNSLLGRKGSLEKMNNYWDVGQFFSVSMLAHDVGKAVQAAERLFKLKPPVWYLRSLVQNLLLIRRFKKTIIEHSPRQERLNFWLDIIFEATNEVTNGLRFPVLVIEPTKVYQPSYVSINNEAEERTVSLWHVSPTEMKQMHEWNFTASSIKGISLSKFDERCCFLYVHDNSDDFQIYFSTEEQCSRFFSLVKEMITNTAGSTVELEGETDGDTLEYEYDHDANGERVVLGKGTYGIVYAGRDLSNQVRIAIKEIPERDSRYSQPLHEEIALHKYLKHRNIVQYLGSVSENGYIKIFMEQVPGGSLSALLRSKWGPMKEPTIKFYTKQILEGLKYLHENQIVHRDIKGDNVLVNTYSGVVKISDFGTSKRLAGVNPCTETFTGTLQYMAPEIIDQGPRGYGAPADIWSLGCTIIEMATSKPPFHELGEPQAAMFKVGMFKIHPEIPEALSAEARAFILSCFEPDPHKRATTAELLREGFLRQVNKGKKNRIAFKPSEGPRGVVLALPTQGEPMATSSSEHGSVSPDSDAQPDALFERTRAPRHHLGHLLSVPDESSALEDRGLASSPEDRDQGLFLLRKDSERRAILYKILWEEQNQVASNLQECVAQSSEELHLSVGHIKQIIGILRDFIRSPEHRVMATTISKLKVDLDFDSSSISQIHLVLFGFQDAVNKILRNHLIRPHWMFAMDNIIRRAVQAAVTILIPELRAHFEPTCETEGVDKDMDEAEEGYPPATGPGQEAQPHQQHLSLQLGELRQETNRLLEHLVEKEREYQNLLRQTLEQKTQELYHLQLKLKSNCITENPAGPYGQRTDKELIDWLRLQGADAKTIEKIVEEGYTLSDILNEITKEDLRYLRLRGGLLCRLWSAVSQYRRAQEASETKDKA

## CNc1cc(Oc2cc(C(=O)Nc3cc(N4CCN(C)CC4)cc(C(F)(F)F)c3)ccc2C)ncn1
[1]
  inhibition at 1 µM: 19.8%
[2]
  inhibition: 29.8%

## CCN1CCN(Cc2ccc(NC(=O)c3ccc(C)c(Oc4ccnc5[nH]ccc45)c3)cc2C(F)(F)F)CC1
[3]
  inhibition: inactive
[4]
  inhibition: inactive
[5]
  inhibition: inactive
[6]
  inhibition: -8.5%
[7]
  inhibition: 29.8%
[8]
  inhibition: -7.7%

## CCN1CCN(Cc2ccc(NC(=O)c3ccc(C)c(/C=C/c4cnc5[nH]ccc5c4OC)c3)cc2C(F)(F)F)CC1
[9]
  inhibition: 50.4%
[10]
  residual activity: 100%
[11]
  residual activity: 100%
